Measurements from ChEMBL document CHEMBL3638950, “Imidazo[5,1-f][1,2,4]triazines for the treatment of neurological disorders” (2013).

Molecular target: cGMP-dependent 3',5'-cyclic phosphodiesterase (Homo sapiens, UniProt O00408)
Assay: Inhibition Assay: The activity of the test substances on human full-length PDE2A3 enzyme was determined using the [3H]-cGMP scintillation proximity assay (SPA) modified from the Amersham TRKQ7100 instructions (GE Healthcare, USA).

Sequence of cGMP-dependent 3',5'-cyclic phosphodiesterase (O00408 whole entry): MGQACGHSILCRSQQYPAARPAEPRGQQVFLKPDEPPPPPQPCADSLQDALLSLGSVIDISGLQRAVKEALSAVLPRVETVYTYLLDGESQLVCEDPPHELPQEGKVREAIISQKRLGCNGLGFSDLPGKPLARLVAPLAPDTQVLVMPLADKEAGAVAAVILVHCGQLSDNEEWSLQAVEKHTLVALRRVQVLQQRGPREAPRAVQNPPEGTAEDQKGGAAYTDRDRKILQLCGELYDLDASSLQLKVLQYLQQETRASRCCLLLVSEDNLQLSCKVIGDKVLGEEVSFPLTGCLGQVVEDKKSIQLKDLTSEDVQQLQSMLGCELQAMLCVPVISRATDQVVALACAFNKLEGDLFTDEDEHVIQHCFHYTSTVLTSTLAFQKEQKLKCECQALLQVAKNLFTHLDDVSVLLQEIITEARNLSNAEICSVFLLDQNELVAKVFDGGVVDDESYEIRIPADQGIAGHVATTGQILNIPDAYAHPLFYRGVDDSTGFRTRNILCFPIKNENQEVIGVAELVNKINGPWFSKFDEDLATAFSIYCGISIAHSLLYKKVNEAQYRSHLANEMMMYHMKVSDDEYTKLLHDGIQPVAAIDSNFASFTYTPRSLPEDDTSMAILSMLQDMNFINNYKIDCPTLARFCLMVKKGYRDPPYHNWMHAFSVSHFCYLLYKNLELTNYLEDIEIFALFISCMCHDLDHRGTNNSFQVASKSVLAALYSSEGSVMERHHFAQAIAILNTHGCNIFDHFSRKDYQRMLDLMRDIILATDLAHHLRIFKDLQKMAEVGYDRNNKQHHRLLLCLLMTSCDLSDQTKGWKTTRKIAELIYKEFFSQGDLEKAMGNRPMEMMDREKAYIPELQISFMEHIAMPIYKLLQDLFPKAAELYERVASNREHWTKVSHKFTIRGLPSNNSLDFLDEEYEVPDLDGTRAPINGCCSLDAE

Cc1nc(-c2cnn(C)c2-c2ccc(C(F)(F)F)cc2)c2c(N3CC(F)C3)ncnn12 was tested, and the IC50 was 633 pM.
